Source: ChEMBL document CHEMBL5604063, “ASAP - DENV-2 NS2B-NS3 protease fluorescence dose response” (2024)
Where “and” joins values, the source holds several entries; their conditions need not be identical. Equal entries are not always repeated.

How the values were obtained:
Genome polyprotein [1] = target: T1, Genome polyprotein (dengue virus type 2, UniProt P29990); assay type: functional, Thailand/16681/1984
Genome polyprotein [2] = target: T1, Genome polyprotein; assay type: functional, Thailand/16681/1984; remark: listed apart in the source

T1 sequence (P29990 1346-1475 limits assumed): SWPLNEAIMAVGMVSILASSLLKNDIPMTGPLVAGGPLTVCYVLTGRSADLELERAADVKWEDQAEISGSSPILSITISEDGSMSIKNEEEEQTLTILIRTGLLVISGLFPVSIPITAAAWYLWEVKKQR
T1 sequence (P29990 1476-2093 limits assumed): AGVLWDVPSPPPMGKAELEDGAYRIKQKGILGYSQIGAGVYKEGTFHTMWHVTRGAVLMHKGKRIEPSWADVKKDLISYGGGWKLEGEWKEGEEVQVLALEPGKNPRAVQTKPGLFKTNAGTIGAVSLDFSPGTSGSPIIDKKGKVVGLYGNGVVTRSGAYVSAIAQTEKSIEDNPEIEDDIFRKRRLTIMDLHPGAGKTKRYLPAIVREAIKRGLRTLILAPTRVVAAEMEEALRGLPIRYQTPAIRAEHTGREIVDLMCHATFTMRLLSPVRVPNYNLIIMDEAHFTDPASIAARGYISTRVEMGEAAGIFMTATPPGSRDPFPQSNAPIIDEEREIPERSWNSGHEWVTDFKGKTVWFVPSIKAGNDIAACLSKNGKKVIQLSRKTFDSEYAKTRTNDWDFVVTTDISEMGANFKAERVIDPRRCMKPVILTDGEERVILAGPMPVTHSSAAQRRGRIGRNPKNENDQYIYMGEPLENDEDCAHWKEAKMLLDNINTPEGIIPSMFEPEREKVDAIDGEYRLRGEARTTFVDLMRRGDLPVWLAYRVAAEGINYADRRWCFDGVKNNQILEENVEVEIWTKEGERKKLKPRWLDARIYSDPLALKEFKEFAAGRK

Structure (SMILES) | IC50 (Genome polyprotein [1]) | IC50 (Genome polyprotein [2])
O=C(Nc1ccc2c(c1)CNC2)c1cc(Cl)cc2cn[nH]c12 | > 99.5 µM | > 100 µM
COc1nn(C)cc1-c1nc2c(C(=O)Nc3ccc4c(c3)CNC4)cc(Cl)cc2[nH]1 | > 99.5 µM | > 100 µM
O=C(Cc1ccc2ncsc2c1)Nc1ccc2c(c1)CNC2 | > 99.5 µM | > 100 µM
CC(C)CCN1Cc2ccc(NC(=O)c3cc(Cl)cc4[nH]ncc34)cc2C1 | > 99.5 µM | > 100 µM
C=CC[C@H]1NCc2cc(NC(=O)c3cccc4c3CC(=O)N4)ccc21 | > 99.5 µM | > 100 µM
Cc1nc2c(C(=O)Nc3ccc4c(c3)CNC4)cccc2[nH]1 | > 99.5 µM | > 100 µM
O=C(Nc1ccc2c(c1)CNC2)c1ccc2sncc2c1 | > 99.5 µM | > 100 µM
O=C(Nc1ccc2c(c1)CNC2)c1cc(Cl)ccc1-n1cncn1 | > 99.5 µM | > 100 µM
Clc1cc([C@@H]2C[C@H]2c2cccc(C3CCNCC3)c2)c2cn[nH]c2c1 | 7.93 µM and 6.82 µM and 6.33 µM | 9.27 µM and 13.3 µM
Cc1nc(C2CC2)[nH]c1C(=O)Nc1cc(CCCN)ccn1 | > 99.5 µM | > 100 µM
CC(C)c1nccn1C[C@H]1CCCN1C(=O)Nc1ccc2c(c1)CNC2 | > 99.5 µM | > 100 µM
Cc1c(C(=O)Nc2cc(-c3cccnc3)ccn2)cc(C2CC2)n1C | 9.09 µM and 8.4 µM and 6.31 µM | 6.7 µM and 9.67 µM
NCc1ccccc1C(=O)Nc1ccc2c(c1)C(=O)OC2 | > 99.5 µM | > 100 µM
O=C(Nc1ccc2c(c1)CNC2)c1cc(F)cc2[nH]cnc12 | 99 µM | > 100 µM
O=C(Nc1ccc2c(c1)CNC2)c1cccc2ccncc12 | > 99.5 µM | > 100 µM
Cn1cc2c(C(=O)Nc3ccc4c(c3)CNC4)cc(F)cc2n1 | > 99.5 µM | > 100 µM
O=C(Nc1ccc2c(c1)CNC2)c1cc(Cl)nc2[nH]ccc12 | > 99.5 µM | > 100 µM
Cc1nc2c(C(=O)Nc3ccc4c(c3)CNC4)cc(Cl)cc2[nH]1 | > 99.5 µM | 80.9 µM
N#C[C@H](Nc1ccc2c(c1)CNC2)c1cncc2ccccc12 | > 99.5 µM | > 100 µM
O=C(Nc1ccc2c(c1)CNC2)N1CC[C@H](Oc2ccc(C3CC3)cn2)C1 | > 99.5 µM | > 100 µM
CCc1ccc(-c2nc3c(C(=O)Nc4ccc5c(c4)CNC5)cc(Cl)cc3[nH]2)cc1 | 21.5 µM | 42.9 µM
CC1CCN(CC[C@H]2CCCN2C(=O)Nc2ccc3c(c2)CNC3)CC1 | > 99.5 µM | > 100 µM

Structure (SMILES) | IC50 (Genome polyprotein [1]) | IC50 (Genome polyprotein [2])
O=C1NS(=O)(=O)c2ccc(NC(=O)c3cc(Cl)cc4[nH]ncc34)cc21 | > 99.5 µM | > 100 µM
O=C(Nc1ccc2c(c1)CNC2)c1cc2ncccc2s1 | > 99.5 µM | > 100 µM
O=C(Nc1ccc2c(c1)CNC2)N1CCC[C@@H]1COCc1ccccc1 | > 99.5 µM | > 100 µM
CC(C)(C)OC(=O)N1Cc2cc(NC(=O)c3cc(Cl)cc4[nH]ncc34)cc(Br)c2C1 | > 99.5 µM | > 100 µM
COC(=O)C(C)(C)NC(=O)[C@H](Nc1ccc2c(c1)CNC2)c1cc(Cl)cc(C2CC2)c1 | > 99.5 µM | > 100 µM
O=C(Nc1ccc2c(c1)CNC2)c1cccc(O)c1 | > 99.5 µM | > 100 µM
C#C[C@H](Nc1ccc2c(c1)CNC2)c1cccc2[nH]c(=O)[nH]c12 | > 99.5 µM | > 100 µM
CCOCC1(c2nc3c(C(=O)Nc4ccc5c(c4)CNC5)cc(Cl)cc3[nH]2)CC1 | 87.5 µM | > 100 µM
O=C(Nc1ccc2c(c1)CNC2)c1nc(Cl)nc2[nH]ccc12 | > 99.5 µM | > 100 µM
C=CC[C@H]1NCc2cc(NC(=O)c3cc(F)cc4[nH]ncc34)ccc21 | 72.9 µM | 39 µM
Cc1[nH]c2ccccc2c1[C@H]1CCN(C(=O)Nc2ccc3c(c2)CNC3)C1 | > 99.5 µM | > 100 µM
O=C(Nc1cc([C@H]2CCOC2)ccn1)c1ccc2ncsc2c1 | > 99.5 µM | > 100 µM
O=C1Cc2c(cc(F)cc2C(=O)Nc2ccc3c(c2)CNC3)N1 | 32.8 µM | 30 µM and 25.6 µM and 21 µM
CC(C)NC(=O)[C@H](Nc1ccc2c(c1)CNC2)c1cc(F)cc2[nH]ncc12 | > 99.5 µM | > 100 µM
O=C(Nc1ccc2c(c1)CNC2)c1cc(C(F)(F)F)nc2[nH]ccc12 | > 99.5 µM | > 100 µM
O=C(Nc1ccc2[nH]c(=O)[nH]c2c1)c1cc(F)cc2[nH]ncc12 | > 99.5 µM | > 100 µM
O=C(Nc1ccc2c(c1)CNC2)c1cc(Cl)ccc1-n1cnnn1 | > 99.5 µM | > 100 µM
CN(C)C(=O)N1Cc2ccc(NC(=O)c3cc(Cl)cc4[nH]ncc34)cc2C1 | > 99.5 µM | > 100 µM
CC1=CC[C@H](c2cccc(-c3nn[nH]n3)c2)Nc2cc(Cl)ccc21 | 69.6 µM | 33.9 µM
Cc1cc(C)n([C@H]2CCCN(C(=O)Nc3ccc4c(c3)CNC4)C2)n1 | > 99.5 µM | > 100 µM
O=C(Nc1ccc2c(c1)CNC2)c1ccc(-c2cncs2)cc1 | > 99.5 µM | > 100 µM
O=C(Nc1ccc2c(c1)CNC2)c1ncc(Cc2ccccc2)s1 | > 99.5 µM | > 100 µM

Structure (SMILES) | IC50 (Genome polyprotein [1]) | IC50 (Genome polyprotein [2])
O=C(NC1CCOCC1)[C@H](Nc1ccc2c(c1)CNC2)c1cc(Cl)cc2[nH]ncc12 | > 99.5 µM | > 100 µM
CC(C)(C)NC(=O)[C@H](Nc1ccc2c(c1)CNC2)c1cc(Cl)cc2[nH]ncc12 | > 99.5 µM | > 100 µM
O=C(Nc1ccc2c(c1)CNC2)N1CCC[C@H]1c1cc(C(F)(F)F)no1 | > 99.5 µM | > 100 µM
O=C(Nc1ccc2c(c1)CNC2)c1ccc2[nH]cnc2c1 | > 99.5 µM | > 100 µM
O=C(Nc1ccc2c(c1)CNC2)c1cc(Cl)cc2[nH]c(-c3cc(C4CC4)[nH]n3)nc12 | 7.32 µM and 5.15 µM | > 100 µM
O=C(Nc1ccc2c(c1)CNC2)c1cc(F)cc2c1CCC2 | > 99.5 µM | > 100 µM
O=C(Nc1ccc2c(c1)CNC2)c1ccc2cc[nH]c2c1 | > 99.5 µM | > 100 µM
Cc1cccc(-c2nc3c(C(=O)Nc4ccc5c(c4)CNC5)cc(Cl)cc3[nH]2)c1O | 7.23 µM and 5.37 µM and 4.3 µM | 18.7 µM
NCc1cc(C=C2CC(C(=O)O)C2)cc(NC(=O)c2cc(Cl)cc(NC(=O)OCc3ccccc3)c2)c1 (configuration not stated) | > 99.5 µM | > 100 µM
O=C(Nc1ccc2c(c1)CNC2)c1cccc2[nH]c(=O)[nH]c12 | > 99.5 µM | 65.3 µM
CC[C@H]1CN(C(=O)Nc2ccc3c(c2)CNC3)C[C@@H]1c1ccc(OC)cc1 | > 99.5 µM | > 100 µM
CC(C)Nc1c(-c2cc(Cl)cc3[nH]ncc23)nc2ccc3c(n12)CNC3 | > 99.5 µM | > 100 µM
O=C(Nc1ccc2c(c1)CNC2)c1cc(Cl)cc2[nH]c(CCc3cccnc3)nc12 | 44.7 µM | > 100 µM
O=C(Nc1ccc2c(c1)CNC2)c1ccc(OC(F)(F)F)cc1 | > 99.5 µM | > 100 µM
NC[C@H]1CC[C@@H](NC(=O)c2cc(Cl)cc3[nH]ncc23)CC1 | > 99.5 µM | > 100 µM
CC(C)CNC(=O)[C@H](Nc1ccc2c(c1)CNC2)c1cc(Cl)cc2[nH]ncc12 | > 99.5 µM | > 100 µM
NCCCc1ccnc(NC(=O)c2cc(C3CC3)[nH]n2)c1 | > 99.5 µM | > 100 µM
COCc1cc(Cl)cc(C(=O)Nc2ccc3c(c2)CNC3)c1 | > 99.5 µM | > 100 µM
NCc1cc(CC(=O)O)cc([C@H]2C[C@@H]2c2cc(Cl)cc(NC(=O)OCc3ccccc3)c2)c1 | > 99.5 µM | > 100 µM
CN(C)C(=O)CCCc1nc2c(C(=O)Nc3ccc4c(c3)CNC4)cc(Cl)cc2[nH]1 | > 99.5 µM | > 100 µM
CCOCCNC(=O)[C@H](Nc1ccc2c(c1)CNC2)c1cc(Cl)cc2[nH]ncc12 | > 99.5 µM | > 100 µM
O=C1Cc2ccc(NC(=O)c3cc(F)cc4[nH]ncc34)cc2N1 | > 99.5 µM | > 100 µM

Structure (SMILES) | IC50 (Genome polyprotein [1]) | IC50 (Genome polyprotein [2])
O=C(Nc1ccc2c(c1)CNC2)c1cc(Cl)cc(N2CCCC2=O)c1 | > 99.5 µM | > 100 µM
O=C(Nc1ccc2c(c1)CNC2)c1cccc2ncccc12 | > 99.5 µM | > 100 µM
O=C(Nc1ccc2c(c1)CNC2)N1CCC[C@H](Cc2nccs2)C1 | > 99.5 µM | > 100 µM
CCCNC(=O)[C@H](Nc1ccc2c(c1)CNC2)c1cc(Cl)cc2[nH]ncc12 | > 99.5 µM | > 100 µM
O=C(Nc1nc(O)c2c(n1)CNC2)c1cc(Cl)cc2[nH]ncc12 | > 99.5 µM | > 100 µM
O=C(Nc1ccc2c(c1)CNC2)c1ccc2ncccc2c1 | > 99.5 µM | > 100 µM
Clc1cccc([C@H](C#Cc2ccccc2)Nc2ccc3c(c2)CNC3)c1 | > 99.5 µM | > 100 µM
O=C(Nc1ccc2c(c1)CNC2)c1cc(F)cc2[nH]c(-c3ccccc3)nc12 | 7.96 µM and 7.05 µM | 5.75 µM
O=C(Nc1ccc2c(c1)CNC2)c1cc(Cl)cc2[nH]c(C3(n4ccnn4)CC3)nc12 | > 99.5 µM | > 100 µM
O=C(Nc1ccc2c(c1)CNC2)c1cc(Cl)cc2nn(-c3ccccc3)nc12 | 7.45 µM and 8.05 µM and 6.62 µM | 12.9 µM
O=C(Nc1ccc2c(c1)CNC2)c1cccc2cn[nH]c12 | > 99.5 µM and 55.6 µM | > 100 µM
O=C(Nc1cc2c(cc1Br)CNC2)c1cc(F)cc2[nH]ncc12 | 67 µM | 58 µM
C[C@](C#N)(Nc1ccc2c(c1)CNC2)c1cccc(Cl)c1 | > 99.5 µM | > 100 µM
O=C(Nc1ccc2c(c1)CNC2)c1ccc2[nH]ccc2c1 | > 99.5 µM | > 100 µM
O=C(Nc1ccc2c(c1)CNC2)c1cc(Cl)cc2ccccc12 | > 99.5 µM | > 100 µM
Cc1csc(CO[C@H]2CCN(C(=O)Nc3ccc4c(c3)CNC4)C2)n1 | > 99.5 µM | > 100 µM
Clc1cc([C@H](C#CC2CC2)Nc2ccc3c(c2)CNC3)c2cn[nH]c2c1 | > 99.5 µM | > 100 µM
O=C(Nc1ccc2c(c1)CNC2)c1cc(Cl)cc2[nH]c(-c3cnc(C4CC4)o3)nc12 | 58.7 µM | 19.4 µM
O=C(Nc1ccc2c(c1)CNC2)c1cc(Cl)cc(N2CCCC2)c1 | > 99.5 µM | > 100 µM
CC(=O)Nc1cccc(C(=O)Nc2ccc3c(c2)CNC3)c1 | > 99.5 µM | > 100 µM
